Assay results: US7628984B2, “Micronutrient formulations for pulmonary and heart health” (Premier Micronutrient Corporation, priority 2005, dated 2009)
Like-named read-outs stand apart in the source and are kept apart here.

Experiments:
[1] = cited from earlier work
[2] = tested on: intracellular levels of glutathione; conditions: cited from earlier work
[3] = tested on: smokers with hypercholesterolemia; conditions: 544 IU, 42 patients, 4 months; cited from earlier work
chickens = conditions: cited from earlier work
[4] = tested on: 39,910 male health professionals; conditions: at least 100 IU per day for at least 2 years vs no vitamin E; cited from earlier work
heavy smokers = conditions: 800 IU daily, 10 heavy smokers, 3 weeks, cited from earlier work
[5] = tested on: patients with angiographically proven coronary atherosclerosis; conditions: cited from earlier work
[6] = tested on: 11,000 people of age 67 or over; conditions: follow up 6 years; cited from earlier work
male monkeys = conditions: vs unsupplemented atherosclerotic-promoting diet; cited from earlier work
rabbits = conditions: cited from earlier work
[7] = tested on: patients with high risk for cardiac events; conditions: Vitamin E 400 IU, 9,541 patients, follow-up 4.5 y, vs control, cited from earlier work
[8] = tested on: patients having coronary angioplasty; conditions: cited from earlier work
[9] = tested on: diabetes type 2 patients with or without macrovascular complications; conditions: 1200 IU/day, 75 patients, 5 months; cited from earlier work
[10] = tested on: men (high risk patients with prior cardiac events); conditions: 50 mg/day, 1862 men, 6 y, vs placebo, cited from earlier work
[11] = tested on: patients undergoing angioplasty; conditions: 317 patients, 4 weeks before and 6 months after angioplasty, vs placebo, cited from earlier work
adenylate cyclase = conditions: cited from earlier work
[12] = Oral ingestion of α-TS, plasma levels; assay type: in vivo; conditions: 800 IU/day, humans
Description: Also, the oxidative DNA damage produced by oxidized vitamin C could be ameliorated by vitamin E. The form and type of vitamin E used are also important in any clinical trial. […] Selenium is a co-factor of glutathione perodidase, and Se-glutathione peroxidase also acts as an antioxidant. Therefore, selenium supplementation together with other antioxidants is also essential.

[13] = oral supplementation, human subjects; cited from earlier work
[14] = tested on: patients with chronic renal failure; conditions: 800 IU, 33 patients, 12 weeks, cited from earlier work
connexin gene = conditions: mammalian cells in culture; cited from earlier work
[15] = tested on: healthy male subjects receiving methionine; conditions: Vit. C 2 g, methionine 100 mg/kg, 6 hours; cited from earlier work
[16] = tested on: patients with idiopathic dilated cardiomyopathy; conditions: Co-enzyme Q10 33.3 mg thrice/day, 126 patients, 6 y; cited from earlier work
[17] = 400 or 800 IU per day, median follow-up 510 days

## CC(=O)N[C@@H](CS)C(=O)O [N-acetylcysteine]
[1]; in vivo
  doses that can cause trace metal deficiencies: ≥ 1000 mg/day
[2]
  intracellular levels of glutathione: increase

## Vitamin E
[3]
  FMD (endothelial-dependent flow-mediated dilation): improved
chickens
  development of early aortic atherosclerotic lesions: reduce
[4]
  lower risk of CAD: 37%
Heavy smokers
  Oxidative stress (levels of oxidative stress markers): increases
Heavy smokers; listed as vitamin E
  Oxidative stress (levels of oxidative stress markers): increased
[5]; [17]
  increase in cardiovascular death: 18%
  lower risk of non-fatal myocardial infarction than the placebo group: 77%
[1]; in vivo
  doses used for short-term clinical studies without adverse effects: up to 2,000 IU/d
[6]
  reduction in mortality from CAD: 47%
Male monkeys
  stenosis progression: decreased
rabbits
  development of early aortic atherosclerotic lesions: reduce
[7]
  Death, stroke, non-fatal MI: no effect
[7]; listed as vitamin E
  Death, stroke, non-fatal MI: did not reduce
[8]; 1200 IU daily for 4 months, placebo 50%
  restenosis, % of patients: 34.6%
[8]; 1200 IU, 100 patients, 4 months
  Stenosis: reduced
[9]
  C-reactive protein (and monocyte interleukin-6): reduced
[10]
  Death, CAD events: no effect
[10]; listed as vitamin E
  Death, CAD events: no significant difference

## CC(C)(Sc1cc(C(C)(C)C)c(O)c(C(C)(C)C)c1)Sc1cc(C(C)(C)C)c(O)c(C(C)(C)C)c1 [Probucol]
[11]
  Restenosis: probucol reduced
[11]; listed as probucol
  Restenosis: effective in reducing

## Cc1c(C)c2c(c(C)c1OC(=O)CCC(=O)O)CC[C@@](C)(CCC[C@H](C)CCC[C@H](C)CCCC(C)C)O2 [α-TS, α-tocopherol-succinate]
Adenylate cyclase
  action of PGE2 on adenylate cyclase: reduce
[12]
  plasma levels of α-tocopherol and α-TS: increased

## N[C@@H](CCC(=O)N[C@@H](CS)C(=O)NCC(=O)O)C(=O)O [glutathione]
[13]
  plasma levels of glutathione: failed to significantly increase

## Cc1c(C)c2c(c(C)c1O)CC[C@@](C)(CCC[C@H](C)CCC[C@H](C)CCCC(C)C)O2 [Vitamin E (d-αT), d-alpha tocopherol]
[14]; listed as Vit. E (d-αT)
  LDL oxidation: reduced
[14]; listed as α-tocopherol
  LDL oxidation: decreased
[5]; 400 or 800 IU, 2,002 patients, follow-up 510 d
  Death, non-fatal MI: reduced
[9]
  C-reactive protein (and monocyte interleukin-6): lowered

## vitamin A
Connexin gene
  expression of the connexin gene: does not produce such an effect
[1]; daily doses higher than twice the RDA
  toxicity after prolonged consumption in adults: liver and skin toxicity

## O=C(O)CCCCC1CCSS1 (stereo not drawn) [α-lipoic acid]
[2]
  intracellular levels of glutathione: increase

## CC1=C(/C=C/C(C)=C/C=C/C(C)=C/C=C/C=C(C)/C=C/C=C(C)/C=C/C2=C(C)CCCC2(C)C)C(C)(C)CCC1 [BC, β-carotene]
Connexin gene
  expression of the connexin gene: enhances
[1]; reversible upon discontinuation
  doses that can cause yellowing of skin and pigment deposits in the eye: ≥ 100 mg/day

## O=C1O[C@H]([C@@H](O)CO)C(O)=C1O [Vit. C, ascorbic acid]
[15]
  Plasma homocysteine, arterial stiffness: reduced

## COC1=C(OC)C(=O)C(C/C=C(\C)CC/C=C(\C)CC/C=C(\C)CC/C=C(\C)CC/C=C(\C)CC/C=C(\C)CC/C=C(\C)CC/C=C(\C)CC/C=C(\C)CCC=C(C)C)=C(C)C1=O [Coenzyme Q10]
[16]
  Cardiac muscle function: useful in improving
[1]; in vivo
  doses with no known toxicity in humans: up to 300 mg/d

## CC(=O)Oc1c(C)c(C)c2c(c1C)CCC(C)(CCC[C@H](C)CCC[C@H](C)CCCC(C)C)O2 (stereo partly drawn) [Vitamin E(α-TA), alpha tocopheryl acetate]
[3]
  FMD (endothelial-dependent flow-mediated dilation): improved
